Results from patent US9145411B2, “Substituted amino-pyrimidine derivatives” (Asana Biosciences, LLC, priority 2012, dated 2015).

How the values were obtained:
[1] = biological target: T1, mTOR kinase (Homo sapiens, UniProt P42345); assay: mTOR kinase TR-FRET assay; assay type: biochemical; conditions: 20 μM ATP
T1 construct: purchased Millipore, USA
In short: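 Test compounds were pre-incubated 60 min with mTOR (5 ng), then ULight-p70 S6K (Thr389) peptide (50 nM) and ATP (20 μM) were added in HEPES 50 mM pH 7.5, EGTA, MnCl2 3 mM. After 60 min at room temperature, EDTA stop and Eu-anti-phospho antibody TR-FRET (665/615 nm) gave IC50 from sigmoidal variable-slope fits.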

[2] = test system: PC3 cells; assay: XTT assay for cell viability, PC3 cells; assay type: cell-based; conditions: Homo sapiens, PC-3; PC3 cell proliferation, 96 hours
In short: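 Log-phase PC3 cells (1000/well) were seeded for 24 h, then exposed to serially diluted compounds (DMSO dilutions) for 96 h. Viability was measured by XTT dye conversion at 37 °C, with absorbance read at 465 nm. EC50 was obtained from a sigmoidal dose-response fit.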

[3] = test system: pAkt(S473); assay: In-cell Western assay, pAkt(S473), PC3 cells; assay type: cell-based; conditions: Homo sapiens, PC-3, 2 hours incubation
Protocol: (§1) Cells from human prostate cancer cell line PC3 (American Type Culture Collection (ATCC), Manassas, Va. 20108 USA) were seeded at an optimal density of 22,000 cell/well in 96-well plates containing Ham's F12K medium (90 μL) and incubated overnight. The compound dilutions were carried out in 100% DMSO followed by a dilution in the medium. Test compounds were added in serial dilutions to the wells and incubated for 2 hours. The cells were washed and fixed with 4% paraformaldehyde. After incubation at room temperature for 1 hour in the dark, blocking was done for 2 hours at room temperature. Primary antibodies for pAkt(S473) ([…] phosphorylated at serine 473), pAkt(T308) (Akt phosphorylated at threonine 308) and for pS6RP (S235/236) (phosphorylated at serine 235/236) (commercially available from Cell Signaling Technology®, whose protocol was followed for the in-cell western assay, were diluted to the required concentration and added to the corresponding wells followed by overnight incubation at 4° C. Eu-labeled rabbit (PE) (Perkin-Elmer USA catalog #AD0106) secondary antibody was added and incubated for 2 hours at room temperature. Delfia® enhancement solution (cat #1244-105, Perkin Elmer USA) was subsequently added to the plate before taking the reading at 615 nm with excitation wavelength of 340 nm, after which 0.5 μg/mL of Hoechst® 33258 dye (Catalog #86140-5, Sigma) was added to the plate and fluorescence emission was read at 460 nm with 355 nm excitation, to evaluate the correction factor. IC50 values were calculated using a sigmoidal dose-response curve fit in GraphPad Prism® v5 software.

[4] = test system: pAkt(T308); assay: In-cell Western assay, pAkt(T308), PC3 cells; assay type: cell-based; conditions: Homo sapiens, PC-3, 2 hours incubation
In short: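 PC3 cells, 22,000/well in Ham's F12K, exposed to serial compound dilutions for 2 h, then fixed and immunostained for each phospho-epitope. Eu-labelled secondary read by time-resolved fluorescence (ex 340, em 615 nm), corrected by Hoechst 33258 signal (ex 355, em 460 nm). IC50 from sigmoidal dose-response fit.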

[5] = biological target: T2, PI3Kα (wild-type) (Homo sapiens, UniProt P42336); assay: PI3 Kinase TR-FRET assay, PI3Kα (wild-type); assay type: biochemical; conditions: wild-type P110/P85α, 10 μM ATP
T2 construct: made in house; host or cells: SF9 insect cells
In short: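 Sf9-expressed, Ni-purified p110/p85α (5 ng) with PIP2 was preincubated with compound for 60 min at room temperature in buffer with 40 mM MgCl2 and 5 mM DTT. The reaction ran 30 min at room temperature with 10 μM PIP2 and 10 μM ATP. The TR-FRET 665/615 nm ratio was used to derive IC50 from dose-response curves.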

[6] = test system: pS6RP (S235/236); assay: In-cell Western assay, pS6RP (S235/236), PC3 cells; assay type: cell-based; conditions: Homo sapiens, PC-3, 2 hours incubation
Protocol: as §1

[7] = test system: BT474 cells; assay: XTT assay for cell viability, BT474 cells; assay type: cell-based; conditions: Homo sapiens, BT-474, read-out: inhibition of BT474 cell proliferation, IC50
Protocol: Using a commercial kit from Sigma Aldrich (Catalog #X34251) and following its protocol, PC3 cells in the log phase of growth were employed and seeded at an optimal density of 1000 cell/well on to 96 well plates and incubated for 24 hours followed by the addition of compounds of formula (I) in serial dilutions. Compound dilutions were made in DMSO. The cells were incubated with the compounds of formula (I) for 96 hours and XTT tetrazolium dye (Sigma, USA) was subsequently added and incubated at 37° C. After the color formation, absorbance was measured at 465 nm in a Spectramax® Gemini spectrophotometer. EC50 values were calculated using a sigmoidal dose response curve fit in GraphPad Prism® v5 software. The tested compounds of formula (I) which caused inhibition of PC3 cell proliferation as determined by this assay protocol are shown in Table 2.
XTT assays for cell viability were also determined in U87MG, BT474 cells and T47D cells, in a similar manner to the protocol described above. The compounds cause inhibition of U87MG, BT474 and T47D cell proliferation as determined by these assays. For example, the compounds of Examples 3 and 7 caused inhibition of U87MG, BT474 and T47D cell proliferation with IC50 values<600 nM.

T2 sequence (P42336 whole entry, species assumed): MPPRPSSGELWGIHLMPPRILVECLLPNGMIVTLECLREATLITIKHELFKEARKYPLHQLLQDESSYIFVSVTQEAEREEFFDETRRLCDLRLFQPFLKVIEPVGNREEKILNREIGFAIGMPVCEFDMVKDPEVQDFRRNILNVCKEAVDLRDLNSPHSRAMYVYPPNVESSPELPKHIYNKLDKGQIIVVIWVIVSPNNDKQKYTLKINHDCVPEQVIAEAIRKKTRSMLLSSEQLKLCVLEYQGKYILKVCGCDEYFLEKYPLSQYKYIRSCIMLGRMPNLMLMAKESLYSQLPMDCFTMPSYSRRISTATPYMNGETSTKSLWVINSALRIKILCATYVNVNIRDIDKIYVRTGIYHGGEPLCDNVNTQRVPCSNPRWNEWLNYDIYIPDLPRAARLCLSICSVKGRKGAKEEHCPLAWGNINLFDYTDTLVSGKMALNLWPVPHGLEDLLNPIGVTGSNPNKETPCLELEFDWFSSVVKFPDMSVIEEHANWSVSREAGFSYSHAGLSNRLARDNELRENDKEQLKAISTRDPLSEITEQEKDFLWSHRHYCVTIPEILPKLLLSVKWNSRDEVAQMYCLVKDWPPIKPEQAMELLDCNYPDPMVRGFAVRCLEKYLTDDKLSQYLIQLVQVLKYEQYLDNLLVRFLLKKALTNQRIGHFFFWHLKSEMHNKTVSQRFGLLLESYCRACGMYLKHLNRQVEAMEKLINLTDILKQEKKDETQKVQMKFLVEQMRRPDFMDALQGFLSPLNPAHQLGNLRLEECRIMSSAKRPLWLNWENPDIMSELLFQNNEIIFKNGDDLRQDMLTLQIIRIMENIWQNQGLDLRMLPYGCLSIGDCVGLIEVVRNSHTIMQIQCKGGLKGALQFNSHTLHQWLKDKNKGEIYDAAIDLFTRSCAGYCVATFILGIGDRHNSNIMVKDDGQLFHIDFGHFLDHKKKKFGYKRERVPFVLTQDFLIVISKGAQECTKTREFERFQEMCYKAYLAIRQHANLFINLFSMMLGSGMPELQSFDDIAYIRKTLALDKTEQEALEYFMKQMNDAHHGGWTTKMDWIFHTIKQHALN
T2 sequence (P27986 whole entry partner, species assumed): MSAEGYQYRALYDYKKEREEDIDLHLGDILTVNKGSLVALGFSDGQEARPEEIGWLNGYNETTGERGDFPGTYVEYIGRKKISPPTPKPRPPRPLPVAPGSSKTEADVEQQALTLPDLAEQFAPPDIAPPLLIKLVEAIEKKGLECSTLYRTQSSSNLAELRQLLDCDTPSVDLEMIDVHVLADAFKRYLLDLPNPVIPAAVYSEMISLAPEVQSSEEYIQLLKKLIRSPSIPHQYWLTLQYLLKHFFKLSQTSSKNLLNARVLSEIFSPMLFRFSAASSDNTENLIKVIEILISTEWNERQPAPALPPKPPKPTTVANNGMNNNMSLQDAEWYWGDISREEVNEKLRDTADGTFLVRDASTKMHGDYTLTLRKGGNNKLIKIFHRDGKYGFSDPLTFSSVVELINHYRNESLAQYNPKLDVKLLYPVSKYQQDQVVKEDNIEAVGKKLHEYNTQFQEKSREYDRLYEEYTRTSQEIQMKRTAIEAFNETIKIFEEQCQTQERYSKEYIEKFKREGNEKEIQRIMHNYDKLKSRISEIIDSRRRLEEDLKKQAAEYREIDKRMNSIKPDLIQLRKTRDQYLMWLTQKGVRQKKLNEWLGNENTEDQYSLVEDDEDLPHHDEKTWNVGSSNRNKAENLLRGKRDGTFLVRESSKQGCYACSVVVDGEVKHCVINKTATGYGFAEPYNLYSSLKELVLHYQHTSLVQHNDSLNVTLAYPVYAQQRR
T1 sequence (P42345 1362-2549 limits assumed): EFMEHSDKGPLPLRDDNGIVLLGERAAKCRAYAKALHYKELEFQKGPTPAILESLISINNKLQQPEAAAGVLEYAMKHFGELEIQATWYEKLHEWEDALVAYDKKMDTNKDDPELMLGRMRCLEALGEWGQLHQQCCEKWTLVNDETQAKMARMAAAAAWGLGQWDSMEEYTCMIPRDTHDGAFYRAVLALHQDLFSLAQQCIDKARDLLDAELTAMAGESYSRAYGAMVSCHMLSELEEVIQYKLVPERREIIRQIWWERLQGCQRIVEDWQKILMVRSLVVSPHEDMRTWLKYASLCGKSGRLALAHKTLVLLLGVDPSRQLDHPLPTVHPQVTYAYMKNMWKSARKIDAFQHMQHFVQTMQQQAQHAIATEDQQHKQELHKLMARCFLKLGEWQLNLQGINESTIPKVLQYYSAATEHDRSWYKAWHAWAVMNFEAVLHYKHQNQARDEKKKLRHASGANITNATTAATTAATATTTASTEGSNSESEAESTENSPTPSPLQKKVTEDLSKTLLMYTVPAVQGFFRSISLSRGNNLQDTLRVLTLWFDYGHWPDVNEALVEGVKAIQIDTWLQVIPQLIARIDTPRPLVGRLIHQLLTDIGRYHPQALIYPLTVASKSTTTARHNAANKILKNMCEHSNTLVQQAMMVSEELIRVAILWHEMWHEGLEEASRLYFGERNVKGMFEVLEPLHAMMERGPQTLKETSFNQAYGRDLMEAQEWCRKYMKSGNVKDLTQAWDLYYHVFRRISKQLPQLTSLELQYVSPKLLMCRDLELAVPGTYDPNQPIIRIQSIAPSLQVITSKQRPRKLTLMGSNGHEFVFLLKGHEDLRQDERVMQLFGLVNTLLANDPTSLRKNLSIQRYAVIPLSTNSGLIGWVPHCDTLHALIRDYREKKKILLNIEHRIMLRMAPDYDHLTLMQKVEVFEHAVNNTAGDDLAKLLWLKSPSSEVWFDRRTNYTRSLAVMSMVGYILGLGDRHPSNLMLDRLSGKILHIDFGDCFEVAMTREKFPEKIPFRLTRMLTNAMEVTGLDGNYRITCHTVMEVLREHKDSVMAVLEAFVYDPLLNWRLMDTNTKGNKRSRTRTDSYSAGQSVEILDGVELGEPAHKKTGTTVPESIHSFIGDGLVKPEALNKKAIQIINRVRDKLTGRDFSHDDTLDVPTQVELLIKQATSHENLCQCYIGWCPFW

CC(=O)Nc1cccc(-c2cnc3c(N4CCOCC4)nc(-c4cnc(N)nc4)nc3c2)c1 [Example 3, N-(3-(2-(2-Aminopyrimidin-5-yl)-4-morpholinopyrido[3,2-d]pyrimidin-7-yl)-phenyl)acetamide]
IC50 [1]: < 50 nM | IC50 [2]: 100 to 500 nM | IC50 [3]: 100 to 500 nM | IC50 [4]: 100 to 500 nM | IC50 [5]: < 50 nM | IC50 [6]: 100 to 500 nM | IC50 [7]: < 600 nM

Nc1ncc(-c2nc(N3CCOCC3)c3ncc(-c4cccc(NC(=O)C5CC5)c4)cc3n2)cn1 [Example 7, N-(3-(2-(2-Aminopyrimidin-5-yl)-4-morpholinopyrido[3,2-d]pyrimidin-7-yl)-phenyl)cyclopropanecarboxamide]
IC50 [1]: < 50 nM | IC50 [2]: 100 to 500 nM | IC50 [3]: < 100 nM | IC50 [4]: 100 to 500 nM | IC50 [5]: < 50 nM | IC50 [6]: 100 to 500 nM | IC50 [7]: < 600 nM

N#CC1(C(=O)Nc2cccc(-c3cnc4c(N5CCOCC5)nc(-c5cnc(N)nc5)nc4c3)c2)CC1 [Example 61, N-(3-(2-(2-amino-pyrimidin-5-yl)-4-morpholinopyrido[3,2-d]pyrimidin-7-yl)phenyl)-1-cyanocyclopropane-carboxamide]
IC50 [1]: < 50 nM | IC50 [2]: 100 to 500 nM | IC50 [3]: 100 to 500 nM | IC50 [4]: < 100 nM | IC50 [5]: < 50 nM | IC50 [6]: < 100 nM
